Results taken from patent US20230027066A1 (Urovant Sciences GmbH, priority 2019, published 2023).

Test system: men and women with overactive bladder
Assay: Phase 3 study of vibegron 75 mg vs placebo and tolterodine ER 4 mg, 12 weeks, efficacy (voiding and urine volume diary)
Format: in vivo, human
Procedure: Enrollment of patients included individuals with OAB Wet (those with UUI, the involuntary loss of urine accompanied by urgency) and OAB Dry (those without UUI). A total of 1,518 patients were randomized across 215 study sites into one of three groups for a 12-week treatment period.
The study consisted of a Screening Period (1 to 5 weeks), a single-blind Run-in Period (2 weeks), a randomized double-blind Treatment Period (12 weeks), and a Follow-up Period (4 weeks).
Tolterodine ER 4 mg was the active control. […] Between the Baseline and Week 12 Visits, patients had study assessments at Week 4 and Week 8.
The Patient Voiding Diary was used by participants (via the eDiary or paper Diary) to record the frequency of daily OAB symptoms including all micturitions, urgency, incontinence, and main reason for incontinence by selecting the respective box for each symptom occurring during the course of a given day and night.
Urine volume data were collected separately by patients using the Urine Volume component of the eDiary, or the paper Urine Volume Chart. The Urine Volume Chart is a tool used in clinical practice and clinical investigation to assess voiding functions over a 24-hour period and is regarded as a useful instrument in the investigation of patients with voiding symptoms. Urine volume may be collected during any one (1) of the 7 Diary Days prior to the visit, and it should be recorded for ˜24 hours starting from the time the patient gets up for the day and continues until the time the patient gets up for the day on the next day.
For the purpose of this study, the number of micturitions was defined as the number of times a patient has voided in the toilet as indicated on the Patient Voiding Diary. Average daily micturitions were calculated using the daily entries in the Patient Voiding Diary, which was completed over the 7 days prior to each study visit. Average daily number of micturitions were calculated as the total number of micturitions that occurred on a Complete Diary Day divided by the number of Complete Diary Days in the Patient Voiding Diary. A complete diary day required confirmation by the patient in the Patient Voiding Diary that all voids and leakages had been recorded for the diary day. Baseline was defined as the average number of micturitions occurring during the last evaluable diary prior to the Baseline Visit.
The number of UUI episodes was defined as the number of times a patient had checked “urge” as the reason for accidental urine leakage. Average daily UUI episodes at each study visit were calculated in the same manner as described above for the micturition endpoint. The UUI endpoint were analyzed using only OAB Wet patients.
For the analysis of the co-primary endpoints (change from baseline in average number of daily micturitions at Week 12 and change from baseline in average number of daily urge urinary incontinence episodes at Week 12, and placebo adjustment of each), a mixed model for repeated measure (MMRM) with restricted maximum likelihood estimation was used. This model corrects for dropout and accounts for the fact that measurements taken on the same patient over time tend to be correlated by using all available information on patients within the same covariate set to derive an estimate of the treatment effect for a dropout-free population. The analysis model for each efficacy endpoint includes terms for treatment, visit, OAB Type (Wet vs Dry), Sex (Female vs Male), Region (US vs Rest of World), baseline score, and interaction of visit by treatment.
Primary inferences were drawn from treatment differences for the changes from baseline derived from the MMRM models at Week 12. As part of secondary objectives, the treatment differences for each post baseline visit were also derived using the same MMRM model. […]

[1] = Week 8, events of Events/Censored
[2] = Week 12, Age ≥ 75 years (posthoc analysis)
[3] = Week 12, No Prior ACH Use in last 12 Mo.
[4] = Week 12, No Prior B3 Agonist Use in last 12 Mo.
[5] = Week 12, Prior ACH Use in last 12 Mo.
[6] = Week 12, Prior B3 Agonist Use in last 12 Mo.

## Cc1ccc(O)c([C@H](CCN(C(C)C)C(C)C)c2ccccc2)c1 [Tolterodine ER, tolterodine, reference compound]
Week 8
  Average daily number of urgency episodes, Mean (SD): 5.60 (4.266)
  Average volume voided per micturition, Active - Placebo LS Mean Difference: 14.4 mL
  Average volume voided per micturition, Week 8 Mean (SD): 162.9 (74.46) mL
  Change from Baseline in Average Daily Number of Total Incontinence, LS Mean (SE): −1.8 (0.16)
  Change from baseline in average daily number of urgency episodes, LS Mean: −2.2
  Change from baseline in average volume voided per micturition, LS Mean (SE): 17.5 (3.44) mL
  Estimated Incidence of Subjects with 50% Decrease from Baseline (urgency episodes): 30.9
  Estimated Incidence of Subjects with 100% Decrease from Baseline (UUI episodes): 15.8
  Total Incontinence, Active - Placebo LS Mean Difference (SE): −0.5 (0.17)
  Urgency episodes, Active - Placebo LS Mean Difference: −0.6
[1]
  First 50% Reduction in Urgency Episodes, Events: 127/290
  First 100% Reduction in UUI Episodes, Events: 49/270
Week 12
  Average Daily Number of Total Incontinence, Mean (SD): 1.89 (2.353)
  Average daily number of urgency episodes, Mean (SD): 5.36 (4.425)
  Average volume voided per micturition, Active - Placebo LS Mean Difference: 13.3 mL
  Average volume voided per micturition, Week 12 Mean (SD): 162.1 (72.96) mL
  Change from Baseline in Average Daily Number of Total Incontinence, LS Mean (SE): −2.0 (0.16)
  Change from baseline in average daily number of urgency episodes, LS Mean: −2.5
  Change from baseline in average volume voided per micturition, LS Mean (SE): 15.5 (3.52) mL
  Estimated Incidence of Subjects with 50% Decrease from Baseline (urgency episodes): 40.5
  Estimated Incidence of Subjects with 100% Decrease from Baseline (UUI episodes): 24.4
  Total Incontinence, Active - Placebo LS Mean Difference (SE): −0.5 (0.17)
  Urgency episodes, Active - Placebo LS Mean Difference: −0.4
Week 12, <65 yrs
  Micturitions: Week 12 CFB Mean (descriptive statistics): −1.99
Week 12, African American
  UUI: Week 12 CFB Mean (descriptive statistics): −1.42
  UUI: Week 12 CFB Median: −1.43
Week 12, Age < 65 years
  Micturitions: Week 12 CFB LS Mean (95% CI): −1.8
  UUI: Week 12 CFB LS Mean (95% CI): −1.8
  UUI: Week 12 CFB Mean (descriptive statistics): −1.72
Week 12, Age ≥ 65 years
  Micturitions: Week 12 CFB LS Mean (95% CI): −1.3
  UUI: Week 12 CFB LS Mean (95% CI): −1.8
  UUI: Week 12 CFB Mean (descriptive statistics): −1.80
[2]
  Micturitions: Week 12 CFB LS Mean (95% CI): −1.5
  UUI: Week 12 CFB LS Mean (95% CI): −2.0
Week 12, Asian
  UUI: Week 12 CFB Mean (descriptive statistics): −0.21
  UUI: Week 12 CFB Median: −0.14
Week 12, Females
  Micturitions: Week 12 CFB LS Mean (95% CI): −1.7
  Micturitions: Week 12 CFB Mean (descriptive statistics): −1.88
  UUI: Week 12 CFB LS Mean (95% CI): −1.8
  UUI: Week 12 CFB Mean (descriptive statistics): −1.71
Week 12, Males
  Micturitions: Week 12 CFB LS Mean (95% CI): −1.0
  Micturitions: Week 12 CFB Mean (descriptive statistics): −1.28
  UUI: Week 12 CFB LS Mean (95% CI): −2.0
  UUI: Week 12 CFB Mean (descriptive statistics): −2.08
Week 12, Males with BPH
  Micturitions: Week 12 CFB Mean (descriptive statistics): −1.25
  UUI: Week 12 CFB Mean (descriptive statistics): −2.15
Week 12, Males without BPH
  Micturitions: Week 12 CFB Mean (descriptive statistics): −1.29
  UUI: Week 12 CFB Mean (descriptive statistics): −2.05
[3]
  Micturitions: Week 12 CFB Mean (descriptive statistics): −1.82
  UUI: Week 12 CFB Mean (descriptive statistics): −1.88
[4]
  Micturitions: Week 12 CFB Mean (descriptive statistics): −1.83
  UUI: Week 12 CFB Mean (descriptive statistics): −1.83
Week 12, Non-White
  Micturitions: Week 12 CFB LS Mean (95% CI): −1.3
  Micturitions: Week 12 CFB Mean (descriptive statistics): −1.42
  UUI: Week 12 CFB LS Mean (95% CI): −1.3
  UUI: Week 12 CFB Mean (descriptive statistics): −1.11
  UUI: Week 12 CFB Median: −1.00
Week 12, Overall
  Micturitions: Week 12 CFB LS Mean (95% CI): −1.6
  Micturitions: Week 12 CFB Mean (descriptive statistics): −1.78
  UUI: Week 12 CFB LS Mean (95% CI): −1.8
  UUI: Week 12 CFB Mean (descriptive statistics): −1.75
[5]
  Micturitions: Week 12 CFB Mean (descriptive statistics): −1.52
  UUI: Week 12 CFB Mean (descriptive statistics): −0.98
[6]
  Micturitions: Week 12 CFB Mean (descriptive statistics): −1.30
  UUI: Week 12 CFB Mean (descriptive statistics): −0.65
Week 12, Region: Non-US
  Micturitions: Week 12 CFB LS Mean (95% CI): −1.0
  Micturitions: Week 12 CFB Mean (descriptive statistics): −1.38
  UUI: Week 12 CFB LS Mean (95% CI): −2.0
  UUI: Week 12 CFB Mean (descriptive statistics): −2.26
Week 12, Region: US
  Micturitions: Week 12 CFB LS Mean (95% CI): −1.7
  Micturitions: Week 12 CFB Mean (descriptive statistics): −1.83
  UUI: Week 12 CFB LS Mean (95% CI): −1.7
  UUI: Week 12 CFB Mean (descriptive statistics): −1.69
Week 12, White
  Micturitions: Week 12 CFB LS Mean (95% CI): −1.6
  Micturitions: Week 12 CFB Mean (descriptive statistics): −1.90
  UUI: Week 12 CFB LS Mean (95% CI): −1.9
  UUI: Week 12 CFB Mean (descriptive statistics): −1.92
  UUI: Week 12 CFB Median: −1.57
